Here are results for 32 compounds from PubChem BioAssay AID463199 (Broad Institute, 2010).

As usually defined, the AC50 is the midpoint of the concentration-response curve, whichever way the signal moves.

The source made the active and inactive calls.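 How the source made its calls: active means AC50, the dose giving half-maximal effect, exceeds a fixed cutoff for a compound that rescues yeast growth under heat; inactive means the rest, inconclusive results apart.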

For this assay, the system named is S. cerevisiae Burl-1 ts mutant growth, BacTiter-Glo, 38.5C 24 h. As to the kind of experiment: restored growth of temperature-sensitive Burl-1 yeast – whole organism, S. cerevisiae, Burl-1 ts mutant, luminescence, counter-screen for SUMOylation pathway inhibitor project, dose response (AID 463199). In general terms: Counterscreens check selectivity or assay interference.
For `Fc1cccc(NC(=S)N2CCn3cccc3C2c2cccnc2)c1` (configuration not stated), the AC50 is > 42 µM (inactive).

Regarding `COc1ccc(CNC(=O)c2cc(=O)c3cc(C)cc(C)c3o2)cc1`, the AC50 is > 42 µM (inactive).

In the case of `C/C(=N\NC(=O)c1ccc(Cl)cc1)c1cccnc1`, the AC50 is > 42 µM (inactive).

As for `CCCCN(C)C(=O)CCC(=O)Nc1ccc2nc(N3CCN(C)CC3)cc(C)c2c1`, the AC50 was > 42 µM (inactive).

With `CCC(C)[C@H]1COCCS(=O)(=O)N1Cc1ccc(C)cc1` (some centres not stated), the AC50 is > 42 µM (inactive).

Regarding `COc1cc(NC(=O)CCN2CCN(Cc3ccccc3)CC2)cc(OC)c1`, the AC50 is > 42 µM (inactive).

As for `COc1ccccc1N1C(=O)c2ccccc2NC1C(OC)OC` (configuration not stated), the AC50 is > 42 µM (inactive).

With `N#Cc1ccc(C23CC4(C2)[C@H](CN(Cc2ccc(C(F)(F)F)cc2)[C@@H]4c2ccccc2)C3c2ccc(C(F)(F)F)cc2)cc1` (some centres not stated), the AC50 is > 42 µM (inactive).

For the compound `CCC(C)(C(=O)NC1CCCC1)N(C(=O)c1ccccn1)c1ccc(C)cc1` (configuration not stated), the AC50 is > 42 µM (inactive).

`COc1ccc(C(=O)c2c(C)c3cc(C)ccc3n2CC(O)CN2CCOCC2)cc1` (configuration not stated): the AC50 is > 110 µM (inactive).

`CN(CCOc1ccc(-c2ccn(S(=O)(=O)c3cccc4ccccc34)n2)cc1)c1ccccn1`: the AC50 was > 42 µM (inactive).

As to `Cc1ccc(/C=C2\SC(N3CCCC3)=NC2=O)cc1`, the AC50 is > 42 µM (inactive).

As for `O=C(Nc1nccs1)C1CCN(S(=O)(=O)c2ccc(Cl)c(C(F)(F)F)c2)CC1`, the AC50 was > 42 µM (inactive).

As for `COC(=O)c1ccc(Cn2cc(Cl)cn2)cc1`, the AC50 was > 42 µM (inactive).

For the compound `Cc1ccc(CNC(=O)c2ccc(N3CCC4(CC3)CC(c3ccccc3)=NO4)c(NC(=O)c3cccc(C)c3)c2)cc1`, the AC50 is > 42 µM (inactive).

In the case of `Clc1cc(Br)ccc1OCCOCCN1CCOCC1`, the AC50 was > 42 µM (inactive).

For `CC1(C)Cc2nc3sc4c(OCc5ccccc5)ncnc4c3cc2CO1`, the AC50 was > 42 µM (inactive).

On to `COc1cccc(OC)c1OCC(O)CN1CCN(c2ccccc2)CC1` (configuration not stated), for which the AC50 is > 42 µM (inactive).

For the compound `CC(=O)Nc1ccccc1C(=O)C(=O)Nc1ccc(C(=O)NCC2CCCO2)cc1` (configuration not stated), the AC50 was > 42 µM (inactive).

`O=C(Cc1cccs1)Nc1cccc(-c2nnc(-c3ccco3)o2)c1`: the AC50 is > 42 µM (inactive).

`COc1ccc(N2CCN(CCCNC(=O)C(=O)c3c(C)[nH]c4ccccc34)CC2)cc1`: the AC50 is > 21 µM (inactive).

As to `O=C(CCCC(=O)N(CC(=O)NC1CCCC1)c1cccc(F)c1)Nc1ccccn1`, the AC50 is > 42 µM (inactive).

As for `COC(=O)CN1C(=O)c2cccc3cccc1c23`, the AC50 is > 42 µM (inactive).

For `Cc1ccc(N(CC(=O)NC2CCCC2)C(=O)CCC(=O)Nc2ccccn2)cc1C`, the AC50 is > 42 µM (inactive).

Regarding `C=C1C2C[C@@]3([C@@H]1O)[C@@H](C[C@@H]2O)[C@@]12C4[C@@H]3C[C@@H]1[C@@](C)(CC[C@@H]2O)CN4CC`, the AC50 was > 42 µM (inactive).

For `Cn1c(SCC(=O)N/N=C/c2ccc([N+](=O)[O-])s2)nnc1-c1ccc(Cl)cc1`, the AC50 was > 42 µM (inactive).

Turning to `CCC(C)[C@H](NC(=O)OC(C)(C)C)C(=O)NCC1CCC(C(=O)N[C@@H](Cc2ccccc2)C(=O)O)CC1` (some centres not stated), the AC50 is > 42 µM (inactive).

`O=c1cc(C(F)(F)F)c2sc(N3CCCCC3)nc2[nH]1`: the AC50 is > 42 µM (inactive).

`O=S(=O)(NCc1ccccc1)c1ccc(S(=O)(=O)N(Cc2ccccn2)Cc2ccco2)cc1`: the half-maximal activity concentration (AC50) was 16.7 µM.

For the compound `O=C(CCC(=O)OC(C(=O)c1ccccc1)c1ccccc1)Nc1ccccc1` (configuration not stated), the AC50 was > 21 µM (inactive).

For `COc1ccc(C)cc1S(=O)(=O)N1CCC(C(=O)NCCc2ccccc2)CC1`, the AC50 is > 42 µM (inactive).

For the compound `COc1ccc2c(c1)[C@H]1[C@H](CO2)[C@H](c2ccccc2)[C@]2(C)C(=O)Nc3ccc(Br)cc3C(=O)N12`, the AC50 is > 42 µM (inactive).
